The subject of one assay is CCRF-CEM. The assay can be described thus: cells. The conditions noted are these: Homo sapiens.
Another assay relates to MOLT-4. The assay can be described thus: cells. The conditions noted are these: Homo sapiens.
In the next assay the test system is NCI-H460. The assay can be described thus: cells. Conditions: Homo sapiens.
The nature of assay [1]: cells. The conditions noted are these: Homo sapiens, NCI-H525.
In a further assay the test system is NCI-H23. The assay can be described thus: cells. The conditions noted are these: Homo sapiens.
A further assay relates to HCC 2998. The assay can be described thus: cells. The conditions noted are these: Homo sapiens.
The test system of the next assay is HCT-116. The assay can be described thus: cells. The conditions noted are these: Homo sapiens.
The test system of a further assay is LOX IMVI. Description: cells. The conditions noted are these: Homo sapiens.
The next assay has as its system M14. Description: cells. Conditions: Homo sapiens.
The next assay concerns OVCAR-8. The assay can be described thus: cells. Conditions: Homo sapiens.
Assay [2] in a line: cells. Conditions: Homo sapiens, 786-0.
A further assay deals with SN12C. Description: cells. Conditions: Homo sapiens.
Assay [3] addresses Thymidylate synthase (Homo sapiens, UniProt P04818).
Assay [4] deals with Thymidylate synthase (Escherichia coli, UniProt C3SWJ7).
Assay [5] deals with T1, Bifunctional dihydrofolate reductase-thymidylate synthase (Toxoplasma gondii, UniProt Q07422).
T1 sequence (Q07422 whole entry): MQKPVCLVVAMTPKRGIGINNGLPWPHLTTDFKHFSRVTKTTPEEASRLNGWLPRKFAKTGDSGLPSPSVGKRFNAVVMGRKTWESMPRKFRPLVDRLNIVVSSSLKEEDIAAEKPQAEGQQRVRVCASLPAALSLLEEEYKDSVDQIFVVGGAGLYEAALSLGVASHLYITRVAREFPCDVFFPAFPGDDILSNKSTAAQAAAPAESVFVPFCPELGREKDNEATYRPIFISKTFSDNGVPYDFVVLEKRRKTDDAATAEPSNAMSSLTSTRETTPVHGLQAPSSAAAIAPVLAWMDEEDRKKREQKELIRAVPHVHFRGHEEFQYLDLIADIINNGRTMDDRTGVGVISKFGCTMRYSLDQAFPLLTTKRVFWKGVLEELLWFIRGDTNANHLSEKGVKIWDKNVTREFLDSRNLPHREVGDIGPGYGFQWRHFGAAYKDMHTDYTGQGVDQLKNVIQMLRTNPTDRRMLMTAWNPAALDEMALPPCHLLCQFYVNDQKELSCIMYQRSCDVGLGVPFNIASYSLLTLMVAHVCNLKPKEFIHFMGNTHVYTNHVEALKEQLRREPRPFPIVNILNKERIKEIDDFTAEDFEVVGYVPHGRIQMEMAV

A further assay concerns the target T2, Dihydrofolate reductase (Homo sapiens, UniProt P00374).
T2 sequence (P00374 whole entry): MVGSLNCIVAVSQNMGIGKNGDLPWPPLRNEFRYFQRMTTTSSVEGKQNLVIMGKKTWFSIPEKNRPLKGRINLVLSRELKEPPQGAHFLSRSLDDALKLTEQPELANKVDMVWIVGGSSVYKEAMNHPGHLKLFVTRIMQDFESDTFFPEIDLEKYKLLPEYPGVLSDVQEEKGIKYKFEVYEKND

In assay [6] the target is T1, Bifunctional dihydrofolate reductase-thymidylate synthase. This is another data set of the same source.
The target in assay [7] is T3, Dihydrofolate reductase (Escherichia coli) (UniProt P0ABQ4).
T3 sequence (whole entry): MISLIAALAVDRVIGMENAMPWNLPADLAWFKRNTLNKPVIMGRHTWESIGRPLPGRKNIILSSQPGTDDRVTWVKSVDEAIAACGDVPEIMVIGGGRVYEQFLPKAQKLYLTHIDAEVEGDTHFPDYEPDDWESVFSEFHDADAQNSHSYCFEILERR
The assay can be described thus: Inhibition of Escherichia coli dihydrofolate reductase at […].

Assay [8] addresses T3, Dihydrofolate reductase (Escherichia coli). Description: Inhibition of Escherichia coli dihydrofolate reductase at 31 uM.
For assay [9] the target is unchanged. The assay can be described thus: Inhibition of Escherichia coli dihydrofolate reductase at 27 uM.
Assay [10] has as its target Thymidylate synthase (Escherichia coli) (UniProt C3SWJ7). The assay can be described thus: Inhibition of Escherichia coli thymidylate synthase at 23 uM.
Assay [11] concerns the target T3, Dihydrofolate reductase (Escherichia coli). Description: Inhibition of Escherichia coli dihydrofolate reductase at 28 uM.
The target in assay [12] is T4, Bifunctional dihydrofolate reductase-thymidylate synthase (Toxoplasma gondii) (UniProt Q07422).
T4 sequence (whole entry): T1 sequence (Q07422 whole entry)
The conditions noted are these: 23 uM.

For assay [13], the target named is T3, Dihydrofolate reductase (Escherichia coli). The assay can be described thus: Inhibition of Escherichia coli dihydrofolate reductase at 3 uM.
The next assay has as its system HL-60(TB). Description: cells. Conditions: Homo sapiens.

Where only a bound is given, the exact number is not on record here.

Sequence of Thymidylate synthase (Escherichia coli, UniProt C3SWJ7) (C3SWJ7 whole entry): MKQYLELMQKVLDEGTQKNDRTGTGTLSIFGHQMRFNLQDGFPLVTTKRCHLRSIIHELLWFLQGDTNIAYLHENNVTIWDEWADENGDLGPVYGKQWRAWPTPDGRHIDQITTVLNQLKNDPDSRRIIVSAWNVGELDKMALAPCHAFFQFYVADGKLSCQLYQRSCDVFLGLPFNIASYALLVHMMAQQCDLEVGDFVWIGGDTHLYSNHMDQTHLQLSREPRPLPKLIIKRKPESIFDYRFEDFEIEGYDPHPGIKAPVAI
Sequence of Thymidylate synthase (Homo sapiens, UniProt P04818) (P04818 whole entry): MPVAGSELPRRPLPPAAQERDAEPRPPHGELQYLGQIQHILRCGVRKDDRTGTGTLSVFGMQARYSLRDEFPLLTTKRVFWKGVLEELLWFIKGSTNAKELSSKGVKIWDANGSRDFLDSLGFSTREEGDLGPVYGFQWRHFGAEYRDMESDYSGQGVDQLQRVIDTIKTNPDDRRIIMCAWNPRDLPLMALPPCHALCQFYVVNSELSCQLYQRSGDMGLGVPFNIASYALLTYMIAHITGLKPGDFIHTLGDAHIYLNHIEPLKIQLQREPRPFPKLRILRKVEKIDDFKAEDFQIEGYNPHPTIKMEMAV
Sequence of Thymidylate synthase (Escherichia coli) (C3SWJ7 1-264): as the sequence (C3SWJ7 whole entry) above

In general, GI50 refers to the concentration giving 50% growth inhibition. For `Cc1sc2nc(N)[nH]c(=O)c2c1Sc1ccc(C(=O)N[C@@H](CCC(=O)O)C(=O)O)cc1`, the GI50 is 94.5 µM in the assay on CCRF-CEM; greater than 100 µM in the assay on MOLT-4; 41.2 µM in the assay on NCI-H460; greater than 100 µM in “cells [1]”; greater than 100 µM with NCI-H23; greater than 100000 nM in the assay on HCC 2998. Also, the GI50 in the assay with HCT-116 was greater than 100000 nM; in the assay on LOX IMVI, 65.6 µM; in the assay with M14, greater than 100 µM; with OVCAR-8, greater than 100000 nM; in the assay “cells [2]”, greater than 100000 nM; with SN12C, greater than 100 µM.
As a reminder, the IC50 is the midpoint of a concentration-inhibition curve. With `CCc1sc2nc(N)[nH]c(=O)c2c1Sc1ccc2ccccc2c1`, the IC50 against Thymidylate synthase [3] was found to be 2300 nM; at Thymidylate synthase [4], 1400 nM; in assay [5], 1100 nM; at Dihydrofolate reductase it was 2200 nM; in assay [6], 8.4 nM.
What is called inhibition is the relative decrease from the control value, in per cent. Low values mean little suppression, high ones strong suppression. In turn, `CCc1sc2nc(N)[nH]c(=O)c2c1Sc1cc(Cl)cc(Cl)c1` showed an inhibition in assay [7] of 0%. The IC50 at Thymidylate synthase [3] stood at 690 nM; against Thymidylate synthase [4], 1200 nM; in assay [5], 1600 nM; at Dihydrofolate reductase, 280 nM; in [6], 14 nM.
As to `CCc1sc2nc(N)[nH]c(=O)c2c1Sc1ccc([N+](=O)[O-])cc1`, the IC50 on Thymidylate synthase [3] stood at 220 nM; at Thymidylate synthase [4], 1700 nM; in [5], 1000 nM; on Dihydrofolate reductase it was 260 nM; in assay [6] it was 8.7 nM.
Taken in the same sequence, the figures for `CCc1sc2nc(N)[nH]c(=O)c2c1Sc1ccccc1Cl` were 1100 nM, 2000 nM, 2500 nM, 600 nM and 27 nM.
Taken in the same sequence, the figures for `CCc1sc2nc(N)[nH]c(=O)c2c1Sc1ccc(Cl)c(Cl)c1` were 230 nM, 2300 nM, 1000 nM, 290 nM and 8.1 nM.
`CCc1sc2nc(N)[nH]c(=O)c2c1Sc1ccc(F)cc1`: in [8], the inhibition is 15%. In addition, the IC50 is 1300 nM on Thymidylate synthase [3]; 2900 nM on Thymidylate synthase [4]; 2600 nM in assay [5]; 620 nM against Dihydrofolate reductase; 25 nM in assay [6].
In the case of `CCc1sc2nc(N)[nH]c(=O)c2c1Sc1cc(OC)cc(OC)c1`, the inhibition in assay [9] turned out to be 0%. The IC50 against Thymidylate synthase [3] was 1200 nM; on Thymidylate synthase [4] it was 1800 nM; in assay [5], 2300 nM; against Dihydrofolate reductase, 540 nM; in assay [6] it was 24 nM.
Regarding `CCc1sc2nc(N)[nH]c(=O)c2c1Sc1cc(OC)ccc1OC`, the inhibition in [10] was determined as 11%; in assay [11] it was 0%; in [12] it was 29%. The IC50 is 4600 nM on Thymidylate synthase [3], greater than 23000 nM against Thymidylate synthase [4], 840 nM at Dihydrofolate reductase and 14 nM in assay [6].
Turning to `CCc1sc2nc(N)[nH]c(=O)c2c1Sc1ccc(Cl)cc1`, the concentration for half-maximal inhibition (IC50) was determined as 750 nM against Thymidylate synthase [3], 2500 nM against Thymidylate synthase [4] and 300 nM on Dihydrofolate reductase.
In the case of `CCc1sc2nc(N)[nH]c(=O)c2c1Sc1cccc(Cl)c1`, the inhibition in [13] amounted to 0%. Further, the IC50 against Thymidylate synthase [3] is 380 nM; at Thymidylate synthase [4] it was 2300 nM; in assay [5] it was 1800 nM; against Dihydrofolate reductase it was 300 nM; in assay [6], 12 nM.
`CCc1sc2nc(N)[nH]c(=O)c2c1Sc1ccccc1`: the half-maximal inhibitory concentration (IC50) at Thymidylate synthase [3] stood at 5600 nM; on Thymidylate synthase [4], 28000 nM; in assay [5], 8400 nM; against Dihydrofolate reductase, 2600 nM; in assay [6], 33 nM.
For `CCc1sc2nc(N)[nH]c(=O)c2c1Sc1ccncc1`, the IC50 against Thymidylate synthase [4] amounted to 2000 nM; in assay [5] it was 1700 nM; on Dihydrofolate reductase, 350 nM; in [6] it was 17 nM.
On to `CCc1sc2nc(N)[nH]c(=O)c2c1Sc1ccc(Br)cc1`, for which the IC50 turned out to be 390 nM against Thymidylate synthase [3]; 2200 nM against Thymidylate synthase [4]; 2200 nM in assay [5]; 260 nM on Dihydrofolate reductase; 13 nM in assay [6].
In the case of `CCc1sc2nc(N)[nH]c(=O)c2c1Sc1ccc(C(=O)N[C@@H](CCC(=O)O)C(=O)O)cc1`, the 50% inhibitory concentration (IC50) against Thymidylate synthase [3] amounted to 54 nM; at Thymidylate synthase [4] it was 18 nM; in assay [5], 90 nM; at Dihydrofolate reductase, 19 nM; in assay [6] it was 2.1 nM. The GI50 stood at 0.853 µM in the assay with CCRF-CEM; 497 nM in the assay with HL-60(TB); 4.78 µM in the assay with MOLT-4; 0.959 µM in the assay with NCI-H460; 7.8 µM in the assay “cells [1]”; 9.4 µM in the assay with NCI-H23. The concentration for 50% growth inhibition (GI50) in the assay with HCC 2998 was 965 nM; with HCT-116, 284 nM; with LOX IMVI, 0.0909 µM; in the assay with M14, 4.32 µM; in the assay on OVCAR-8, 579 nM; in the assay “cells [2]” it was 817 nM. Also, the GI50 in the assay on SN12C was 3.31 µM.

The values are drawn from ChEMBL document CHEMBL1151945 (J Med Chem, 2009).
